Laboratory results taken from the supplement of paper PMC5908809.

Experiments:
[1] = tested on: normal NK cells expanded with K562-aAPC; test: percent inhibition of viability; higher = more inhibition; details: 72 h, IL-2 2.5 ng/mL
Protocol: (§1)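 Drug sensitivity and resistance testing on K562-aAPC-expanded normal NK cells: 5 concentrations (10-fold steps over a 10,000-fold range), 72 h at 37 °C, viability by CellTiter-Glo normalised to DMSO and benzethonium chloride controls; DSS from the fitted curve.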

DERL-7 (IL-2 2.5 ng/mL) [2] = test: as above; details: 72 h
IMC-1 (IL-2 20 ng/mL) [3] = test: as above; details: 72 h
KAI3 (IL-2 2.5 ng/mL) [4] = test: as above; details: 72 h
KHYG-1 (IL-2 2.5 ng/mL) [5] = test: as above; details: 72 h
NK-92 (IL-2 2.5 ng/mL) [6] = test: as above; details: 72 h
NK-YS (IL-2 2.5 ng/mL) [7] = test: as above; details: 72 h
NKL (IL-2 2.5 ng/mL) [8] = test: as above; details: 72 h
SNK-6 (IL-2 2.5 ng/mL) [9] = test: as above; details: 72 h
YT (IL-2 2.5 ng/mL) [10] = test: as above; details: 72 h
[11] = tested on: normal primary NK cells, pool 1 (3 donors) (IL-2 2.5 ng/mL); test: as above; details: 72 h
[12] = tested on: normal primary NK cells, pool 1 (3 donors), resting (IL-2 0 ng/mL); test: as above; details: 72 h
[13] = tested on: normal primary NK cells, pool 2 (3 donors) (IL-2 2.5 ng/mL); test: as above; details: 72 h
[14] = tested on: normal primary NK cells, pool 3 (3 donors) (IL-2 2.5 ng/mL); test: as above; details: 72 h
[15] = tested on: normal NK cells expanded with K562-aAPC; test: drug sensitivity score (DSS) (DSS units); higher = more sensitive; extreme values may be limits of the assay; details: 72 h; IL-2 2.5 ng/mL
Protocol: as §1

DERL-7 (IL-2 2.5 ng/mL) [16] = test: as above; details: 72 h
IMC-1 (IL-2 20 ng/mL) [17] = test: as above; details: 72 h
KAI3 (IL-2 2.5 ng/mL) [18] = test: as above; details: 72 h
KHYG-1 (IL-2 2.5 ng/mL) [19] = test: as above; details: 72 h
NK-92 (IL-2 2.5 ng/mL) [20] = test: as above; details: 72 h
NK-YS (IL-2 2.5 ng/mL) [21] = test: as above; details: 72 h
NKL (IL-2 2.5 ng/mL) [22] = test: as above; details: 72 h
SNK-6 (IL-2 2.5 ng/mL) [23] = test: as above; details: 72 h
YT (IL-2 2.5 ng/mL) [24] = test: as above; details: 72 h
[25] = tested on: normal primary NK cells, pool 1 (3 donors) (IL-2 2.5 ng/mL); test: as above; details: 72 h
[26] = tested on: normal primary NK cells, pool 1 (3 donors), resting (IL-2 0 ng/mL); test: as above; details: 72 h
[27] = tested on: normal primary NK cells, pool 2 (3 donors) (IL-2 2.5 ng/mL); test: as above; details: 72 h
[28] = tested on: normal primary NK cells, pool 3 (3 donors) (IL-2 2.5 ng/mL); test: as above; details: 72 h

COc1cccc2c1C(=O)c1c(O)c3c(c(O)c1C2=O)C[C@@](O)(/C(CO)=N/NC(=O)CCCCCN1C(=O)C=CC1=O)C[C@@H]3O[C@H]1C[C@H](N)[C@H](O)[C@H](C)O1 [Aldoxorubicin] (max concentration tested 1000 nM)
percent inhibition of viability [%]
Details	0.1 nM	1 nM	10 nM	100 nM	1000 nM
DERL-7 (IL-2 2.5 ng/mL) [2]	-4.24	-3.44	13.3	87.3	101
IMC-1 (IL-2 20 ng/mL) [3]	-3.88	-4.51	3.18	86.5	101
KAI3 (IL-2 2.5 ng/mL) [4]	-11.1	-12.4	4.9	74.1	87
KHYG-1 (IL-2 2.5 ng/mL) [5]	-0.32	5.45	-0.18	79.9	106
NK-92 (IL-2 2.5 ng/mL) [6]	-14.3	-7.33	-3.29	53.2	104
NK-YS (IL-2 2.5 ng/mL) [7]	-4.26	-3.37	13.9	83.1	103
NKL (IL-2 2.5 ng/mL) [8]	-13.6	-5.62	92.1	103	107
SNK-6 (IL-2 2.5 ng/mL) [9]	7.67	13.7	17.1	91.1	95.2
YT (IL-2 2.5 ng/mL) [10]	3.75	-0.69	-3.82	70.5	105
[1]	0.3	4.21	5.36	47	101
[11]	-11.9	-3.83	-12.3	29.5	97.6
[12]	-26	-23.3	-31.6	64.9	91.5
[13]	-13.7	-6.33	0.42	49.2	94.5
[14]	-11.3	-10.4	0.28	31.5	97.1

Details	drug sensitivity score
DERL-7 (IL-2 2.5 ng/mL) [16]	17.6
IMC-1 (IL-2 20 ng/mL) [17]	16
KAI3 (IL-2 2.5 ng/mL) [18]	14.2
KHYG-1 (IL-2 2.5 ng/mL) [19]	14.7
NK-92 (IL-2 2.5 ng/mL) [20]	12
NK-YS (IL-2 2.5 ng/mL) [21]	17
NKL (IL-2 2.5 ng/mL) [22]	28.9
SNK-6 (IL-2 2.5 ng/mL) [23]	18.9
YT (IL-2 2.5 ng/mL) [24]	13.6
[15]	11.1
[25]	9.69
[26]	12.4
[27]	11.3
[28]	9.86

CCC1(c2ccc(N)cc2)CCC(=O)NC1=O (stereo not drawn) [Aminoglutethimide] (max concentration tested 10000 nM)
percent inhibition of viability [%]
Details	1 nM	10 nM	100 nM	1000 nM	10000 nM
DERL-7 (IL-2 2.5 ng/mL) [2]	6.92	1.97	7.28	-2.32	7.58
IMC-1 (IL-2 20 ng/mL) [3]	1.84	4.93	3.29	2.36	3.88
KAI3 (IL-2 2.5 ng/mL) [4]	14	10.4	8.76	9.73	9.01
KHYG-1 (IL-2 2.5 ng/mL) [5]	16.4	0	11	1.44	15.2
NK-92 (IL-2 2.5 ng/mL) [6]	7.96	0.54	12.4	0.81	11.1
NK-YS (IL-2 2.5 ng/mL) [7]	4.81	6.87	2.26	7.56	4.69
NKL (IL-2 2.5 ng/mL) [8]	28.3	0.83	18.7	-2.97	15.1
SNK-6 (IL-2 2.5 ng/mL) [9]	21.1	17.4	10.2	-16	-32.7
YT (IL-2 2.5 ng/mL) [10]	13.1	2.62	11.4	2.84	12.5
[1]	1.05	-2.97	-1	-2.85	0.83
[11]	-5.3	-8.94	-8.74	-4.93	1.17
[12]	-3.93	-9.4	-1.78	-7.06	21.1
[13]	3.13	3.88	0.19	1.2	8.45
[14]	4.12	-2.09	1.89	3.88	6.3

Details	drug sensitivity score
DERL-7 (IL-2 2.5 ng/mL) [16]	0
IMC-1 (IL-2 20 ng/mL) [17]	0
KAI3 (IL-2 2.5 ng/mL) [18]	0
KHYG-1 (IL-2 2.5 ng/mL) [19]	0
NK-92 (IL-2 2.5 ng/mL) [20]	0
NK-YS (IL-2 2.5 ng/mL) [21]	0
NKL (IL-2 2.5 ng/mL) [22]	0.06
SNK-6 (IL-2 2.5 ng/mL) [23]	0
YT (IL-2 2.5 ng/mL) [24]	0
[15]	0
[25]	0
[26]	0.43
[27]	0
[28]	0
